We go through 56 molecules from the supplement of paper PMC10702517.

This series can be described thus: chemical recovery from spiked human plasma; higher = better extraction. As to conditions: pooled human plasma.
Where [1] appears, read: extraction method: solvent precipitation (ACN + hexane).
Where [2] appears, read: extraction method: SPE only (HLB 96-well).
The mark [3] stands for this setting: extraction method: SPE only (HLB 96-well), PES comparison experiment.
Where [4] appears, read: extraction method: PES+SPE (3 d PDMS equilibration then HLB SPE).

Structures are written as SMILES. ± gives the standard deviation.

With `c1ccc2sc(SN3CCOCC3)nc2c1` [2-Morpholinothiobenzothiazole], the chemical recovery under setting [1] was 139 ± 8.9%.

In turn, `Nc1ccccc1[N+](=O)[O-]` [2-Nitroaniline] registered a chemical recovery under setting [2] of 25.1 ± 5.2%.

As to `O=C1Cc2ccccc2N1` [2-Oxindole], the chemical recovery under setting [1] came out at 39.1 ± 5.5%.

`N[C@@H](Cc1cc(I)c(Oc2ccc(O)c(I)c2)c(I)c1)C(=O)O` [3,3',5-Triiodo-L-thyronine]: the chemical recovery under setting [1] was 56.3 ± 2.7%.

With `Cc1cc(-c2ccc(N)c(C)c2)ccc1N` [3,3'-Dimethylbenzidine], the chemical recovery turned out to be 37.1 ± 6.7% under setting [2], 20.3 ± 2.9% under setting [3] and 61.7 ± 6.9% under setting [1].

Turning to `Oc1cc(Cl)c(Cl)c(Cl)c1` [3,4,5-Trichlorophenol], the chemical recovery under setting [4] was 58.9 ± 7.8%, the chemical recovery under setting [2] is 45 ± 3.1% and the chemical recovery under setting [1] turned out to be 70.1 ± 3.9%.

`Oc1ccc(Cl)cc1O` [3,4-Dihydroxy-chlorobenzene]: the chemical recovery by setting is: under setting [4], 5.54 ± 1.6%; under setting [2], 39.4 ± 4.7%.

On to `CC(=O)c1cc(C(C)(C)C)c(O)c(C(C)(C)C)c1` [3,5-Di-tert-butyl-4'-hydroxyacetophenone], for which the chemical recovery reads like this: under setting [2], 20.1 ± 4.9%; under setting [1], 42.1 ± 2.7%.

As to `Cc1ccc2ccc3ccc(C)cc3c2c1` [3,6-dimethylphenanthrene], the chemical recovery is, setting by setting: under setting [4], 36.5 ± 13%; under setting [2], 2.62 ± 0.48%; under setting [1], 71.5 ± 5%.

Regarding `Cc1ccc(N)cc1Cl` [3-Chloro-4-methylaniline], the chemical recovery was 56.7 ± 3.6% under setting [4], 45.3 ± 2.8% under setting [2] and 76.7 ± 4.1% under setting [1].

`CN(C)C(=O)NC1CCCCC1` [3-Cyclohexyl-1,1-dimethylurea]: the chemical recovery was 28.9 ± 9.2% under setting [4], 35.4 ± 2.2% under setting [2] and 61.2 ± 1.1% under setting [1].

For `Oc1cc(-c2ccc(Cl)cc2)ccc1Cl` [3-Hydroxy-4,4'-dichlorobiphenyl], the chemical recovery is, setting by setting: under setting [2], 35.7 ± 2.3%; under setting [1], 42.3 ± 3.4%.

On to `Cc1ccc2cc3c(ccc4ccccc43)c3c2c1CC3` [3-Methylcholanthrene], for which the chemical recovery by setting is: under setting [2], 0.839 ± 0.34%; under setting [1], 58.3 ± 3.3%.

Molecule `O=C(O)CCC(F)(F)C(F)(F)C(F)(F)F` [3.3-FTCA] returned a chemical recovery under setting [4] of 2.63 ± 2.7% and a chemical recovery under setting [2] of 0.288 ± 0.082%.

Consider `COc1cc(NC(=O)CC(C)=O)c(OC)cc1Cl` [4'-Chloro-2',5'-dimethoxyacetoacetanilide], for which the chemical recovery runs as follows: under setting [4], 21.7 ± 5%; under setting [2], 43.2 ± 5.5%.

As for `CC(C)(c1ccccc1)c1ccc(Nc2ccc(C(C)(C)c3ccccc3)cc2)cc1` [4,4'-Bis(alpha,alpha-dimethylbenzyl)diphenylamine], under setting [2], the chemical recovery is 2.12 ± 1.1%.

Take `ClC(Cl)=C(c1ccc(Cl)cc1)c1ccc(Cl)cc1` [4,4'-DDE]: the chemical recovery is, setting by setting: under setting [4], 49.3 ± 15%; under setting [2], 0.779 ± 0.23%; under setting [1], 41.1 ± 2.4%.

Turning to `ClC=C(c1ccc(Cl)cc1)c1ccc(Cl)cc1` [4,4'-DDMU], the chemical recovery under setting [4] is 54.3 ± 19%, the chemical recovery under setting [2] came out at 1.65 ± 0.55% and the chemical recovery under setting [1] turned out to be 30.1 ± 2.7%.

With `Clc1ccc(C(c2ccc(Cl)cc2)C(Cl)(Cl)Cl)cc1` [4,4'-DDT], the chemical recovery reads like this: under setting [4], 81.7 ± 22%; under setting [2], 3.49 ± 1.1%; under setting [1], 56.7 ± 8.1%.

For the molecule `Nc1ccc(Cc2ccc(N)cc2)cc1` [4,4'-Methylenedianiline], the chemical recovery by setting is: under setting [2], 9.55 ± 0.81%; under setting [1], 31.9 ± 11%.

With `Nc1ccc(Oc2ccc(N)cc2)cc1` [4,4'-Oxydianiline], the chemical recovery worked out at 0.849 ± 0.6% under setting [4], 8.07 ± 0.83% under setting [2] and 26.3 ± 9% under setting [1].

Under setting [3], `Clc1ccc(C(c2ccc(Cl)cc2)C(Cl)(Cl)Cl)cc1` [4,4-DDT] gave a chemical recovery of 52.8 ± 20%.

With `CC(=O)CCc1ccc(O)cc1` [4-(4-Hydroxyphenyl)butan-2-one], the chemical recovery by setting is: under setting [4], 64.8 ± 5.4%; under setting [2], 60 ± 5.2%; under setting [1], 64.5 ± 4%.

For the molecule `CN(C)c1ccncc1` [4-(Dimethylamino)pyridine], the chemical recovery by setting is: under setting [4], 0.689 ± 0.15%; under setting [2], 2.53 ± 2.1%; under setting [1], 60.5 ± 4%.

Molecule `CC(=O)N1CCOCC1` [4-Acetylmorpholine] returned a chemical recovery under setting [2] of 3.35 ± 3.7%.

On to `Cc1cc(N)c2ccccc2n1` [4-Amino-2-methylquinoline], for which the chemical recovery is, setting by setting: under setting [4], 27.3 ± 3.6%; under setting [2], 32.7 ± 2.9%; under setting [1], 73.8 ± 2.2%.

`CN(C)S(=O)(=O)c1ccc(N)cc1` [4-Amino-N,N-dimethylbenzenesulfonamide]: the chemical recovery runs as follows: under setting [4], 69.6 ± 6.2%; under setting [2], 63.7 ± 4.4%.

In the case of `CN(C)S(=O)(=O)c1ccc(N)cc1` [4-Amino-NN-dimethylbenzenesulfonamide], the chemical recovery reads like this: under setting [4], 51.6 ± 4%; under setting [2], 45.4 ± 4.2%; under setting [1], 77.3 ± 4%.

As to `Cc1c(N)c(=O)n(-c2ccccc2)n1C` [4-Aminoantipyrine], the chemical recovery is, setting by setting: under setting [4], 6.85 ± 1.7%; under setting [2], 8.59 ± 2.6%; under setting [1], 67.1 ± 4.8%.

For `Nc1ccc(Nc2ccccc2)cc1` [4-Aminodiphenylamine], the chemical recovery under setting [4] was found to be 1.74 ± 1.1% and the chemical recovery under setting [2] is 1.91 ± 0.31%.

In the case of `COc1cc(Cl)c(OC)cc1N` [4-Chloro-2,5-dimethoxyaniline], the chemical recovery is, setting by setting: under setting [4], 11 ± 2.9%; under setting [2], 26.5 ± 3.5%; under setting [1], 55 ± 2.7%.

As for `CC(C)(c1ccccc1)c1ccc(O)cc1` [4-Cumylphenol], the chemical recovery reads like this: under setting [2], 30.6 ± 7.2%; under setting [1], 46.6 ± 4.5%.

As to `Cc1c(C=O)c(=O)n(-c2ccccc2)n1C` [4-Formyl-antipyrine], the chemical recovery is, setting by setting: under setting [4], 41.3 ± 3.5%; under setting [2], 34.4 ± 4.1%; under setting [1], 69.5 ± 2.1%.

With `Oc1c(Cl)cc(-c2ccc(Cl)cc2)cc1Cl` [4-Hydroxy-3,4',5-trichlorobiphenyl], the chemical recovery under setting [4] was 46.3 ± 7.3%, the chemical recovery under setting [2] is 36.1 ± 5.9% and the chemical recovery under setting [1] worked out at 27.9 ± 1.8%.

Regarding `O=C(c1ccccc1)c1ccc(O)cc1` [4-Hydroxybenzophenone], the chemical recovery is 65.9 ± 5.4% under setting [4], 53 ± 4.1% under setting [2] and 77.7 ± 3.6% under setting [1].

As to `Oc1cccc2n[nH]nc12` [4-Hydroxybenzotriazole], the chemical recovery is, setting by setting: under setting [2], 32.8 ± 2.4%; under setting [3], 48 ± 8.1%; under setting [1], 3.14 ± 2.8%.

Consider `Oc1ccnc2ccccc12` [4-Hydroxyquinoline], for which the chemical recovery under setting [2] amounted to 44.7 ± 1.7%.

For `CC(C)c1ccc(N)cc1` [4-Isopropylaniline], the chemical recovery reads like this: under setting [4], 6.67 ± 1.6%; under setting [2], 15.1 ± 2.4%; under setting [3], 18.2 ± 5.3%; under setting [1], 23.6 ± 3.4%.

Take `COc1cc([N+](=O)[O-])ccc1O` [4-Nitroguaiacol]: the chemical recovery runs as follows: under setting [4], 45.3 ± 6.9%; under setting [2], 39.5 ± 6.2%; under setting [1], 82.7 ± 14%.

Molecule `CC(C)(C)CC(C)(C)c1ccc(O)cc1` [4-Tert-Octylphenol] came in with a chemical recovery under setting [2] of 25.4 ± 2%.

Take `CC1(C)C(=O)NC(=O)NC1=O` [5,5-Dimethylbarbituric-acid]: the chemical recovery under setting [4] was 5.81 ± 5%, the chemical recovery under setting [2] turned out to be 8.69 ± 8.3% and the chemical recovery under setting [1] was 39.8 ± 10%.

For the molecule `Oc1c(Cl)cc(Cl)c2cccnc12` [5,7-Dichloro-8-hydroxyquinoline], the chemical recovery under setting [2] stood at 21.3 ± 1.8%.

`Nc1cccc2cc(S(=O)(=O)O)ccc12` [5-Aminonaphthalene-2-sulfonic acid]: the chemical recovery under setting [2] came out at 10.5 ± 3.9%, the chemical recovery under setting [3] worked out at 18.3 ± 2.4% and the chemical recovery under setting [1] amounted to 65 ± 2.7%.

In the case of `Cc1c2ccccc2cc2c1cc(Br)c1ccccc12` [5-Bromo-7-methylbenzo[a]anthracene], the chemical recovery stood at 1.01 ± 0.069% under setting [2] and 58.3 ± 3.7% under setting [1].

Consider `c1ccc2c(c1)[nH]c1ccncc12` [5-Carboline], for which the chemical recovery was found to be 25.1 ± 5% under setting [4], 34.1 ± 2.7% under setting [2], 31.2 ± 3.7% under setting [3] and 72.4 ± 3.9% under setting [1].

Regarding `Oc1ccc(Cl)c2cccnc12` [5-Chloro-8-hydroxyquinoline], the chemical recovery stood at 2.63 ± 3.2% under setting [4] and 12.2 ± 4.9% under setting [2].

Turning to `Oc1ccc2[nH]ccc2c1` [5-Hydroxyindole], the chemical recovery under setting [1] stood at 39.3 ± 5.3%.

Turning to `O=C(O)c1cc(C(=O)O)cc([N+](=O)[O-])c1` [5-Nitroisophthalic-acid], the chemical recovery reads like this: under setting [4], 79.2 ± 17%; under setting [2], 50.5 ± 17%; under setting [1], 0.332 ± 0.35%.

`CC(C)N1C(=O)c2cc(O)ccc2NS1(=O)=O` [6-Hydroxybentazone]: the chemical recovery runs as follows: under setting [4], 29 ± 4%; under setting [2], 33.9 ± 7.6%; under setting [1], 70.3 ± 3.6%.

Turning to `Sc1ncnc2nc[nH]c12` [6-Mercaptopurine], the chemical recovery under setting [4] was found to be 0.00575 ± 0.005%, the chemical recovery under setting [2] turned out to be 0.069 ± 0.0096% and the chemical recovery under setting [1] turned out to be 0.144 ± 0.25%.

Turning to `C[C@]12CCC(=O)C=C1[C@H](O)C[C@@H]1[C@@H]2[C@@H](O)C[C@@]2(C)[C@H]1CC[C@]2(O)C(=O)CO` [6-beta-Hydroxycortisol], the chemical recovery under setting [3] turned out to be 45.1 ± 7.2%.

On to `O=S(=O)(O)CCC(F)(F)C(F)(F)C(F)(F)C(F)(F)C(F)(F)C(F)(F)F` [6.2 fluorotelomer sulfonic acid], for which the chemical recovery under setting [2] amounted to 35.9 ± 1.7%, the chemical recovery under setting [3] was found to be 43.1 ± 5% and the chemical recovery under setting [1] is 75.6 ± 2.9%.

The molecule `O=P(O)(OCCC(F)(F)C(F)(F)C(F)(F)C(F)(F)C(F)(F)C(F)(F)F)OCCC(F)(F)C(F)(F)C(F)(F)C(F)(F)C(F)(F)C(F)(F)F` [6.2-Fluorotelomerphosphate-diester] registered a chemical recovery under setting [2] of 7.04 ± 2.1%.

For `CC(C)CC(C)NC1=CC(=O)C(Nc2ccccc2)=CC1=O` (stereo not drawn) [6PPD-quinone], the chemical recovery reads like this: under setting [4], 16.3 ± 4.4%; under setting [2], 51.9 ± 4.4%; under setting [1], 79.3 ± 4%.

As for `CCN(CC)c1ccc2c(C)cc(=O)oc2c1` [7-Diethylamino-4-methylcoumarin], the chemical recovery under setting [4] amounted to 65.9 ± 13%, the chemical recovery under setting [2] came out at 94 ± 5.9%, the chemical recovery under setting [3] was determined as 47.7 ± 7.5% and the chemical recovery under setting [1] was 78.3 ± 2.5%.

As for `C[C@H](CCC(=O)O)[C@H]1CC[C@H]2[C@@H]3C(=O)C[C@@H]4C[C@H](O)CC[C@]4(C)[C@H]3CC[C@]12C` [7-Oxolithocholic-acid], the chemical recovery under setting [4] was 51.1 ± 5.2%, the chemical recovery under setting [2] worked out at 38.6 ± 2.2% and the chemical recovery under setting [1] was 65.4 ± 3.4%.
